From the supplement of paper PMC10307832

What was measured:
Assay in all cases: relative viability (nuclei count vs DMSO), 5 days (fraction); higher = more cells survive
BMX-IN-1 + Vorinostat = compound: C=CC(=O)Nc1cc(-n2c(=O)ccc3cnc4ccc(-c5ccc(NS(C)(=O)=O)cc5)cc4c32)ccc1C [BMX-IN-1] + O=C(CCCCCCC(=O)Nc1ccccc1)NO [Vorinostat] (partner 1 µM)
Method in brief: (§1)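 Relative viability equals treated-well nuclei counts divided by vehicle-well nuclei counts. Counts came from 4× images of lung cancer cell lines grown in 1536-well plates for 5 days after pin-tool dosing on the day after seeding. Dosing used one drug alone or a fixed anchor-drug dose plus five library-drug doses (not always all listed) in √10 steps, and values are medians of duplicate plates.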

PAC-1 + Foretinib = compound: C=CCc1cccc(/C=N/NC(=O)CN2CCN(Cc3ccccc3)CC2)c1O [PAC-1] + COc1cc2c(Oc3ccc(NC(=O)C4(C(=O)Nc5ccc(F)cc5)CC4)cc3F)ccnc2cc1OCCCN1CCOCC1 [Foretinib] (partner 0.25 µM)
Method in brief: as §1

Ibrutinib + Luminespib = compound: C=CC(=O)N1CCC[C@@H](n2nc(-c3ccc(Oc4ccccc4)cc3)c3c(N)ncnc32)C1 [Ibrutinib] + CCNC(=O)c1noc(-c2cc(C(C)C)c(O)cc2O)c1-c1ccc(CN2CCOCC2)cc1 [Luminespib] (partner 0.01 µM)
Method in brief: as §1

PAC-1 + Pictilisib = compound: C=CCc1cccc(/C=N/NC(=O)CN2CCN(Cc3ccccc3)CC2)c1O [PAC-1] + CS(=O)(=O)N1CCN(Cc2cc3nc(-c4cccc5[nH]ncc45)nc(N4CCOCC4)c3s2)CC1 [Pictilisib] (partner 1 µM)
Method in brief: as §1

Cell Line	relative viability (BMX-IN-1 + Vorinostat; first compound 0.02 µM)	relative viability (BMX-IN-1 + Vorinostat; first compound 0.2 µM)	relative viability (BMX-IN-1 + Vorinostat; first compound 0.6325 µM)	relative viability (BMX-IN-1 + Vorinostat; first compound 2 µM)	relative viability (PAC-1 + Foretinib; first compound 0.02 µM)	relative viability (PAC-1 + Foretinib; first compound 0.06325 µM)	relative viability (PAC-1 + Foretinib; first compound 0.2 µM)	relative viability (PAC-1 + Foretinib; first compound 2 µM)	relative viability (Ibrutinib + Luminespib; first compound 0.01581 µM)	relative viability (Ibrutinib + Luminespib; first compound 0.05 µM)	relative viability (Ibrutinib + Luminespib; first compound 0.1581 µM)	relative viability (Ibrutinib + Luminespib; first compound 0.5 µM)	relative viability (PAC-1 + Pictilisib; first compound 0.02 µM)	relative viability (PAC-1 + Pictilisib; first compound 0.06325 µM)	relative viability (PAC-1 + Pictilisib; first compound 0.2 µM)	relative viability (PAC-1 + Pictilisib; first compound 2 µM)	relative viability (Ibrutinib + Luminespib; first compound 0.005 µM)
NCI-H596	0.685	0.84	0.67	0.666	0.767	0.832	0.876	0.894	0.894	0.77	0.959	0.805	0.424	0.423	0.341	0.422	
NCI-H647	0.709	0.725	0.663	0.495	1.17	1.08	1.29	1.31	0.14	0.239	0.181	0.196	0.417		0.417	0.331	
NCI-H650	0.475	0.52	0.48	0.438	1.08	1.07	0.992	0.988	0.757	0.737	0.885	0.949	1.07	0.951	0.86	0.874	0.775
NCI-H661	0.878	0.877	0.857	0.743	1.05	0.963	0.967	0.957	0.835	0.772	0.934	0.653	0.392	0.351	0.33	0.371	1
NCI-H727	1.11	1.3	1.29	1.2	0.811	1.02	0.937	0.881	0.597	0.282		0.516	0.338	0.525	0.453	0.283	
NCI-H838	0.827	0.64	0.728	0.73	1.06	0.953	1.01	1.06		0.266	0.326	0.325	0.427	0.526	0.387	0.455	0.288
NCI-H1355	0.705	0.706	0.697	0.76	0.921	0.983	0.936	1.04	0.648	0.715	0.858	0.517	0.386	0.475	0.393	0.492	0.55
NCI-H1395	0.764	0.708	0.942	0.746	0.937	1.02	0.875	0.873	0.739	1.15	0.788	0.702	0.603	0.677	0.61	0.602	0.488
NCI-H1437	0.964	0.866	0.896	0.949	1.19	1.23	1.3	1.1	1.16	1.11	1.14	1.12	0.495	0.474	0.415	0.391	1.13
NCI-H1650	0.501	0.452	0.571	0.522	0.892	1.31	1.22	0.732	0.196	0.192	0.194	0.209	0.53	0.608	0.582	0.515	0.211
NCI-H1651	0.481	0.585	0.604	0.552	0.796	0.72	0.735	0.917	1.05	0.93	0.876	0.921	0.579	0.647	0.59	0.535	0.847
NCI-H1666	1.03	1.05	1.13	1.15	0.975	0.979	0.995	0.95	0.975	0.956	1.08	0.784	0.501	0.398	0.358	0.427	0.951
NCI-H1734	0.81	0.927	0.866	0.902	0.759	0.779	0.762	0.759	0.189	0.235	0.188	0.175	0.446	0.448	0.431	0.468	0.208
NCI-H1755	0.72	0.849	0.812	0.8	0.948	0.976	0.948	0.949	0.617	0.55	0.313	0.531	0.445	0.434	0.391	0.438	0.318
NCI-H1793	0.998	0.563	0.856	0.849	0.651	0.504	0.646	0.559	0.155	0.196	0.177	0.151	0.344	0.345	0.254	0.332	
NCI-H1915	0.576	0.531	0.564	0.53	1.09	1.08	1.02	1.08	0.85	0.819	0.857	0.69	0.875	1.02	0.929	0.951	0.824
NCI-H1944	0.519	0.659	0.598	0.578	0.882	0.802	0.783	0.891	0.57	0.714	0.669	0.536	0.3	0.345	0.323	0.33	0.649
NCI-H1975	0.707	0.754	0.737	0.703	0.933	0.947	1.01	0.932	0.183	0.212	0.254	0.138	0.281	0.304	0.308	0.303	0.162

Cell Line	relative viability (BMX-IN-1 + Vorinostat; first compound 0.02 µM)	relative viability (BMX-IN-1 + Vorinostat; first compound 0.2 µM)	relative viability (BMX-IN-1 + Vorinostat; first compound 0.6325 µM)	relative viability (BMX-IN-1 + Vorinostat; first compound 2 µM)	relative viability (PAC-1 + Foretinib; first compound 0.02 µM)	relative viability (PAC-1 + Foretinib; first compound 0.06325 µM)	relative viability (PAC-1 + Foretinib; first compound 0.2 µM)	relative viability (PAC-1 + Foretinib; first compound 2 µM)	relative viability (Ibrutinib + Luminespib; first compound 0.01581 µM)	relative viability (Ibrutinib + Luminespib; first compound 0.05 µM)	relative viability (Ibrutinib + Luminespib; first compound 0.1581 µM)	relative viability (Ibrutinib + Luminespib; first compound 0.5 µM)	relative viability (PAC-1 + Pictilisib; first compound 0.02 µM)	relative viability (PAC-1 + Pictilisib; first compound 0.06325 µM)	relative viability (PAC-1 + Pictilisib; first compound 0.2 µM)	relative viability (PAC-1 + Pictilisib; first compound 2 µM)	relative viability (Ibrutinib + Luminespib; first compound 0.005 µM)
NCI-H1993	0.767	0.9	0.85	0.898	0.718	0.746	0.608	0.826	0.78	0.824	0.689	0.605	0.696	0.881	0.844	0.823	0.607
NCI-H2009	0.782	0.798	0.746	0.839	1.2	1.23	1.21	1.19	1.06	1.07	1.02	1.05	0.832	0.866	0.792	0.789	1.07
NCI-H2023	0.726	0.742	0.654	0.105	0.824	0.789	0.911	0.773	0.678	0.665	0.737	0.907	0.224	0.262	0.213	0.258	0.671
NCI-H2085	0.816	0.771	0.821	0.831	0.815	0.932	0.998	1.07	0.465	0.504	0.489	0.447	0.446	0.518	0.422	0.485	0.349
NCI-H2087	0.66	1.12	0.837	0.575	0.787	1.22	0.959	1.18	0.136	0.153		0.165	0.852	0.901	0.782	0.683	0.161
NCI-H2126	0.829	0.697	0.864	0.786	1.28	1.25	1.15	1.12	0.756	0.855	0.962	0.75	0.43	0.478	0.495	0.49	0.651
NCI-H2170	0.724	1.06	0.79	0.849	1.08	0.961	0.969	1.01	0.425	0.446	0.741	0.344	0.28	0.315	0.362	0.27	0.435
NCI-H2228	0.938	0.884	0.531	0.561	0.903	0.862	0.888	0.786		0.116	0.131	0.144	0.42	0.507	0.397	0.362	0.121
NCI-H2347	0.725	0.716	0.586	0.596	0.786	0.771	0.601	1.3	0.508	0.358	0.323	0.529	0.51	0.723	0.604	0.591	
NCI-H2405	1.05	1.13	1.16	0.955	1.04	1.04	1.02	1.1	0.669	0.66	0.713	0.69	0.44	0.455	0.45	0.376	0.846
NCI-H3122	0.938	1.1	0.902	1.14	0.958	0.976	0.967	0.89	0.0853	0.101	0.104	0.0947	0.611	0.564	0.645	0.566	0.0621
PC-3 [JPC-3]	0.953	0.831	0.916	0.766	1.06	1.02	0.996	0.994	0.64	0.74	0.806	0.505	0.736	0.77	0.732	0.787	0.65
PC-14	0.863	0.86	1.01	0.0519	0.932	0.939	0.935	0.92	0.266	0.135	0.127	0.179	0.667	0.681	0.623	0.677	0.167
RERF-LC-KJ	0.77	0.734	0.824	0.45	0.961	0.854	0.845	0.904	1.12	1.26	1.14	1.16	0.553	0.471	0.423	0.552	1.24
SK-LU-1	0.719	0.969	0.797	0.69	0.834	0.797	0.78	0.78	0.184	0.24	0.199	0.194	0.557	0.607	0.457	0.512	0.205
SW 1573	0.845	0.98	0.709	0.0976	0.828	0.741	0.912	0.979	0.382	0.198	0.288	0.582	0.475	0.448	0.394	0.457	0.419
UMC-11	0.343	0.417	0.336	0.332	1.06	1.05	1.04	1.01	0.999	1.07	1.05	0.98	0.843	0.783	0.754	0.815	0.873
